ChEMBL document CHEMBL1201861, “Genomics of Drug Sensitity in Cancer screening data, Wellcome Trust Sanger Institute”
Counter-ions that a name gives are not always drawn.

What was measured:
Experiment in all cases: cells
Type in all cases: functional, cell-based, Homo sapiens
HCC2157 = conditions: Homo sapiens, HCC2157
Description: SANGER: Inhibition of human HCC2157 cell growth in a cell viability assay.

IST-MEL1 = conditions: Homo sapiens, IST-MEL1
Description: SANGER: Inhibition of human IST-MEL1 cell growth in a cell viability assay.

D283 Med = conditions: Homo sapiens, D283 Med
Description: SANGER: Inhibition of human D-283MED cell growth in a cell viability assay.

ES4 = conditions: Homo sapiens, ES4
Description: SANGER: Inhibition of human ES4 cell growth in a cell viability assay.

SW 962 = conditions: Homo sapiens, SW 962
Description: SANGER: Inhibition of human SW962 cell growth in a cell viability assay.

ES6 = conditions: Homo sapiens, ES6
Description: SANGER: Inhibition of human ES6 cell growth in a cell viability assay.

MOLT-16 = conditions: Homo sapiens, MOLT-16
Description: SANGER: Inhibition of human MOLT-16 cell growth in a cell viability assay.

HAL-01 = conditions: Homo sapiens, HAL-01
Description: SANGER: Inhibition of human HAL-01 cell growth in a cell viability assay.

NB6 = conditions: Homo sapiens, NB6
Description: SANGER: Inhibition of human NB6 cell growth in a cell viability assay.

COLO-824 = conditions: Homo sapiens, COLO-824
Description: SANGER: Inhibition of human COLO-824 cell growth in a cell viability assay.

GCIY = conditions: Homo sapiens, GCIY
Description: SANGER: Inhibition of human GCIY cell growth in a cell viability assay.

KP-N-YS = conditions: Homo sapiens, KP-N-YS
Description: SANGER: Inhibition of human KP-N-YS cell growth in a cell viability assay.

BE-13 = conditions: Homo sapiens, BE-13
Description: SANGER: Inhibition of human BE-13 cell growth in a cell viability assay.

L-428 = conditions: Homo sapiens, L-428
Description: SANGER: Inhibition of human L-428 cell growth in a cell viability assay.

SK-N-FI = conditions: Homo sapiens, SK-N-FI
Description: SANGER: Inhibition of human SK-N-FI cell growth in a cell viability assay.

MFH-ino = conditions: Homo sapiens, MFH-ino
Description: SANGER: Inhibition of human MFH-ino cell growth in a cell viability assay.

OVCAR-4 = conditions: Homo sapiens, OVCAR-4
Description: SANGER: Inhibition of human OVCAR-4 cell growth in a cell viability assay.

TE-5 = conditions: Homo sapiens, TE-5
Description: SANGER: Inhibition of human TE-5 cell growth in a cell viability assay.

A101D = conditions: Homo sapiens, A101D
Description: SANGER: Inhibition of human A101D cell growth in a cell viability assay.

IA-LM = conditions: Homo sapiens, IA-LM
Description: SANGER: Inhibition of human IA-LM cell growth in a cell viability assay.

SF-268 = conditions: Homo sapiens, SF-268
Description: SANGER: Inhibition of human SF268 cell growth in a cell viability assay.

GR-ST = conditions: Homo sapiens, GR-ST
Description: SANGER: Inhibition of human GR-ST cell growth in a cell viability assay.

BB30-HNC = conditions: Homo sapiens, BB30-HNC
Description: SANGER: Inhibition of human BB30-HNC cell growth in a cell viability assay.

LS-1034 = conditions: Homo sapiens, LS-1034
Description: SANGER: Inhibition of human LS-1034 cell growth in a cell viability assay.

L-363 = conditions: Homo sapiens, L-363
Description: SANGER: Inhibition of human L-363 cell growth in a cell viability assay.

TGW = conditions: Homo sapiens, TGW
Description: SANGER: Inhibition of human TGW cell growth in a cell viability assay.

GOTO = conditions: Homo sapiens, GOTO
Description: SANGER: Inhibition of human GOTO cell growth in a cell viability assay.

NCI-H747 = conditions: Homo sapiens, NCI-H747
Description: SANGER: Inhibition of human NCI-H747 cell growth in a cell viability assay.

TE-11 = conditions: Homo sapiens, TE-11
Description: SANGER: Inhibition of human TE-11 cell growth in a cell viability assay.

NB12 = conditions: Homo sapiens, NB12
Description: SANGER: Inhibition of human NB12 cell growth in a cell viability assay.

NCI-H82 = conditions: Homo sapiens, NCI-H82
Description: SANGER: Inhibition of human NCI-H82 cell growth in a cell viability assay.

NCI-H720 = conditions: Homo sapiens, NCI-H720
Description: SANGER: Inhibition of human NCI-H720 cell growth in a cell viability assay.

A3-KAW = conditions: Homo sapiens, A3-KAW
Description: SANGER: Inhibition of human A3-KAW cell growth in a cell viability assay.

HC-1 = conditions: Homo sapiens, HC-1
Description: SANGER: Inhibition of human HC-1 cell growth in a cell viability assay.

NCI-H1299 = conditions: Homo sapiens, NCI-H1299
Description: SANGER: Inhibition of human NCI-H1299 cell growth in a cell viability assay.

SK-MEL-1 = conditions: Homo sapiens, SK-MEL-1
Description: SANGER: Inhibition of human SK-MEL-1 cell growth in a cell viability assay.

A704 = conditions: Homo sapiens, A704
Description: SANGER: Inhibition of human A704 cell growth in a cell viability assay.

BB65-RCC = conditions: Homo sapiens, BB65-RCC
Description: SANGER: Inhibition of human BB65-RCC cell growth in a cell viability assay.

8-MG-BA = conditions: Homo sapiens, 8-MG-BA
Description: SANGER: Inhibition of human 8-MG-BA cell growth in a cell viability assay.

EW-24 = conditions: Homo sapiens, EW-24
Description: SANGER: Inhibition of human EW-24 cell growth in a cell viability assay.

OCUB-M = conditions: Homo sapiens, OCUB-M
Description: SANGER: Inhibition of human OCUB-M cell growth in a cell viability assay.

NCI-H1650 = conditions: Homo sapiens, NCI-H1650
Description: SANGER: Inhibition of human NCI-H1650 cell growth in a cell viability assay.

MSTO-211H = conditions: Homo sapiens, MSTO-211H
Description: SANGER: Inhibition of human MSTO-211H cell growth in a cell viability assay.

NEC8 = conditions: Homo sapiens, NEC8
Description: SANGER: Inhibition of human NEC8 cell growth in a cell viability assay.

CGTH-W-1 = conditions: Homo sapiens, CGTH-W-1
Description: SANGER: Inhibition of human CGTH-W-1 cell growth in a cell viability assay.

J-RT3-T3-5 = conditions: Homo sapiens, J-RT3-T3-5
Description: SANGER: Inhibition of human J-RT3-T3-5 cell growth in a cell viability assay.

NCI-H1395 = conditions: Homo sapiens, NCI-H1395
Description: SANGER: Inhibition of human NCI-H1395 cell growth in a cell viability assay.

NOMO-1 = conditions: Homo sapiens, NOMO-1
Description: SANGER: Inhibition of human NOMO-1 cell growth in a cell viability assay.

MPP-89 = conditions: Homo sapiens, MPP-89
Description: SANGER: Inhibition of human MPP-89 cell growth in a cell viability assay.

## CCC/C=C/C=C/C(=O)O[C@H]1/C(=C/C(=O)OC)C[C@H]2C[C@H]([C@@H](C)O)OC(=O)C[C@H](O)C[C@@H]3C[C@H](OC(C)=O)C(C)(C)[C@](O)(C[C@@H]4C/C(=C/C(=O)OC)C[C@H](/C=C/C(C)(C)[C@]1(O)O2)O4)O3 [BRYOSTATIN 1]
HCC2157
  IC50: > 8 nM
IST-MEL1
  IC50: > 8 nM
D283 Med
  IC50: > 8 nM
ES4
  IC50: > 8 nM
SW 962
  IC50: > 8 nM
ES6
  IC50: > 8 nM
MOLT-16
  IC50: > 8 nM
HAL-01
  IC50: > 8 nM
NB6
  IC50: > 8 nM
COLO-824
  IC50: > 8 nM
GCIY
  IC50: > 8 nM
KP-N-YS
  IC50: > 8 nM
BE-13
  IC50: > 8 nM
L-428
  IC50: > 8 nM
SK-N-FI
  IC50: > 8 nM
MFH-ino
  IC50: > 8 nM
OVCAR-4
  IC50: > 8 nM
TE-5
  IC50: > 8 nM
A101D
  IC50: > 8 nM
IA-LM
  IC50: > 8 nM
SF-268
  IC50: > 8 nM
GR-ST
  IC50: > 8 nM
BB30-HNC
  IC50: > 8 nM
LS-1034
  IC50: > 8 nM
L-363
  IC50: > 8 nM
TGW
  IC50: > 8 nM
GOTO
  IC50: > 8 nM
NCI-H747
  IC50: > 8 nM
TE-11
  IC50: > 8 nM
NB12
  IC50: > 8 nM
NCI-H82
  IC50: > 8 nM
NCI-H720
  IC50: > 8 nM
A3-KAW
  IC50: > 8 nM
HC-1
  IC50: > 8 nM
NCI-H1299
  IC50: > 8 nM
SK-MEL-1
  IC50: > 8 nM
A704
  IC50: > 8 nM
BB65-RCC
  IC50: > 8 nM
8-MG-BA
  IC50: > 8 nM
EW-24
  IC50: > 8 nM
OCUB-M
  IC50: > 8 nM
NCI-H1650
  IC50: > 8 nM
MSTO-211H
  IC50: > 8 nM
NEC8
  IC50: > 8 nM
CGTH-W-1
  IC50: > 8 nM
J-RT3-T3-5
  IC50: > 8 nM
NCI-H1395
  IC50: > 8 nM
NOMO-1
  IC50: > 8 nM
MPP-89
  IC50: > 8 nM

## COC1=CC(c2cc3ccccc3[nH]2)=N/C1=C\c1[nH]c(C)cc1C [OBATOCLAX MESYLATE]
HCC2157
  IC50: 1140 nM
IST-MEL1
  IC50: < 62.5 nM
D283 Med
  IC50: 1120 nM
ES4
  IC50: 103 nM
SW 962
  IC50: 65.7 nM
ES6
  IC50: 144 nM
MOLT-16
  IC50: 1730 nM
HAL-01
  IC50: < 62.5 nM
NB6
  IC50: 4430 nM
COLO-824
  IC50: 678 nM
GCIY
  IC50: 310 nM
KP-N-YS
  IC50: 789 nM
BE-13
  IC50: 129 nM
L-428
  IC50: 370 nM
SK-N-FI
  IC50: 14900 nM
MFH-ino
  IC50: 247 nM
OVCAR-4
  IC50: 206 nM
TE-5
  IC50: 483 nM
A101D
  IC50: 30.5 nM
IA-LM
  IC50: 60.5 nM
SF-268
  IC50: 57.6 nM
GR-ST
  IC50: < 62.5 nM
BB30-HNC
  IC50: < 62.5 nM
LS-1034
  IC50: 658 nM
L-363
  IC50: 46.8 nM
TGW
  IC50: 17.4 nM
GOTO
  IC50: 4300 nM
NCI-H747
  IC50: 143 nM
TE-11
  IC50: 302 nM
NB12
  IC50: 725 nM
NCI-H82
  IC50: 3340 nM
NCI-H720
  IC50: > 16000 nM
A3-KAW
  IC50: 85.7 nM
HC-1
  IC50: 1930 nM
NCI-H1299
  IC50: 61.3 nM
SK-MEL-1
  IC50: > 16000 nM
A704
  IC50: 91.5 nM
BB65-RCC
  IC50: 175 nM
8-MG-BA
  IC50: 78 nM
EW-24
  IC50: 340 nM
OCUB-M
  IC50: 225 nM
NCI-H1650
  IC50: 3780 nM
MSTO-211H
  IC50: 4840 nM
NEC8
  IC50: 55.9 nM
CGTH-W-1
  IC50: 399 nM
J-RT3-T3-5
  IC50: 118 nM
NCI-H1395
  IC50: > 16000 nM
NOMO-1
  IC50: 564 nM
MPP-89
  IC50: 463 nM

## N#Cc1c(O)c2c(-c3ccc(-c4ccccc4O)cc3)csc2[nH]c1=O
HCC2157
  IC50: 105 nM
IST-MEL1
  IC50: > 1020 nM
D283 Med
  IC50: 386 nM
ES4
  IC50: > 1020 nM
SW 962
  IC50: > 1020 nM
ES6
  IC50: > 1020 nM
MOLT-16
  IC50: 61.9 nM
HAL-01
  IC50: > 1020 nM
NB6
  IC50: > 1020 nM
COLO-824
  IC50: 328 nM
GCIY
  IC50: > 1020 nM
KP-N-YS
  IC50: > 1020 nM
BE-13
  IC50: > 1020 nM
L-428
  IC50: 225 nM
SK-N-FI
  IC50: > 1020 nM
MFH-ino
  IC50: > 1020 nM
OVCAR-4
  IC50: > 1020 nM
TE-5
  IC50: > 1020 nM
A101D
  IC50: > 1020 nM
IA-LM
  IC50: > 1020 nM
SF-268
  IC50: > 1020 nM
GR-ST
  IC50: 218 nM
BB30-HNC
  IC50: > 1020 nM
LS-1034
  IC50: > 1020 nM
L-363
  IC50: 211 nM
TGW
  IC50: 311 nM
GOTO
  IC50: 395 nM
NCI-H747
  IC50: > 1020 nM
TE-11
  IC50: > 1020 nM
NB12
  IC50: > 1020 nM
NCI-H82
  IC50: > 1020 nM
NCI-H720
  IC50: > 1020 nM
A3-KAW
  IC50: 91.7 nM
HC-1
  IC50: 83.1 nM
NCI-H1299
  IC50: > 1020 nM
SK-MEL-1
  IC50: > 1020 nM
A704
  IC50: > 1020 nM
BB65-RCC
  IC50: > 1020 nM
8-MG-BA
  IC50: > 1020 nM
EW-24
  IC50: > 1020 nM
OCUB-M
  IC50: > 1020 nM
NCI-H1650
  IC50: > 1020 nM
MSTO-211H
  IC50: > 1020 nM
NEC8
  IC50: 480 nM
CGTH-W-1
  IC50: > 1020 nM
J-RT3-T3-5
  IC50: 378 nM
NCI-H1395
  IC50: > 1020 nM
NOMO-1
  IC50: 263 nM
MPP-89
  IC50: > 1020 nM
